Measured values from the NIST ThermoML archive (doi:10.1016/j.jct.2019.03.022).

Settings: Liquid, Frequency=5 MHz, Pulse-echo method

Cc1ccc(C)cc1 [1,4-dimethylbenzene]
Settings | speed of sound [m/s]
305.93 K, 3690 kPa | 1296.5
305.97 K, 40270 kPa | 1464.5
305.98 K, 5250 kPa | 1304.4
305.98 K, 45030 kPa | 1483.5
305.98 K, 50870 kPa | 1506
305.99 K, 1000 kPa | 1281.8
305.99 K, 35160 kPa | 1443.6
306 K, 4900 kPa | 1302.5
306 K, 13840 kPa | 1347.7
306 K, 30490 kPa | 1423.8
306.02 K, 2050 kPa | 1287.2
306.03 K, 9400 kPa | 1325.6
306.05 K, 6960 kPa | 1312.9
306.06 K, 19900 kPa | 1376.2
306.07 K, 2050 kPa | 1287.1
306.07 K, 16500 kPa | 1360.1
306.07 K, 24630 kPa | 1397.8
306.1 K, 29650 kPa | 1419.7
306.14 K, 26930 kPa | 1407.8
306.18 K, 28370 kPa | 1413.9
323.47 K, 41260 kPa | 1410.2
323.47 K, 49810 kPa | 1445.3
323.47 K, 59650 kPa | 1483.5
323.48 K, 34540 kPa | 1381.1
323.48 K, 54770 kPa | 1464.8
323.48 K, 55430 kPa | 1467.4
323.49 K, 46870 kPa | 1433.4
323.51 K, 49380 kPa | 1443.5
323.51 K, 65910 kPa | 1506.7
323.52 K, 30290 kPa | 1361.8
323.53 K, 11470 kPa | 1269.8
323.54 K, 1060 kPa | 1211.5
323.54 K, 6060 kPa | 1240.3
323.54 K, 44230 kPa | 1422.4
323.54 K, 45010 kPa | 1425.6
323.55 K, 18570 kPa | 1306.1
323.56 K, 210 kPa | 1206.4
323.57 K, 490 kPa | 1208.1
323.57 K, 2600 kPa | 1220.4
323.57 K, 10070 kPa | 1262.1
323.57 K, 20900 kPa | 1317.5
323.57 K, 39580 kPa | 1402.7
323.57 K, 44830 kPa | 1424.7
323.58 K, 5070 kPa | 1234.5
323.58 K, 6090 kPa | 1240.3
323.58 K, 11110 kPa | 1267.7
323.58 K, 34830 kPa | 1382
323.59 K, 7490 kPa | 1248
323.59 K, 17890 kPa | 1302.5
323.59 K, 25130 kPa | 1337.7
323.59 K, 30210 kPa | 1361.3
323.6 K, 15130 kPa | 1288.6
335.95 K, 55000 kPa | 1427.5
335.95 K, 65380 kPa | 1467.9
335.96 K, 61040 kPa | 1451.3
335.97 K, 50590 kPa | 1409.6
335.98 K, 1230 kPa | 1164
335.98 K, 2630 kPa | 1172.6
335.98 K, 5600 kPa | 1190.4
335.98 K, 45230 kPa | 1387.1
335.99 K, 280 kPa | 1158
335.99 K, 570 kPa | 1159.8
335.99 K, 10300 kPa | 1217.5
335.99 K, 20370 kPa | 1271.4
336 K, 10270 kPa | 1217.2
336 K, 24830 kPa | 1293.8
336 K, 30890 kPa | 1323
336 K, 34840 kPa | 1341.2
336.01 K, 14980 kPa | 1243.1
336.01 K, 20750 kPa | 1273.3
336.02 K, 40670 kPa | 1367.2
336.03 K, 41380 kPa | 1370.3
336.05 K, 41270 kPa | 1369.8
336.06 K, 31080 kPa | 1323.6
348.25 K, 40 kPa | 1108.8
348.27 K, 2120 kPa | 1122.5
348.28 K, 4090 kPa | 1135.2
348.29 K, 2590 kPa | 1125.5
348.3 K, 2110 kPa | 1122.3
348.32 K, 1270 kPa | 1116.8
348.32 K, 8600 kPa | 1162.9
348.32 K, 8900 kPa | 1164.7
348.35 K, 10880 kPa | 1176.3
348.36 K, 15220 kPa | 1201.1
348.36 K, 20050 kPa | 1227.6
348.37 K, 14620 kPa | 1197.7
348.37 K, 60580 kPa | 1413.4
348.39 K, 59820 kPa | 1410.3
348.39 K, 64180 kPa | 1427.6
348.4 K, 64670 kPa | 1429.6
348.41 K, 59890 kPa | 1410.6
348.42 K, 45170 kPa | 1348.7
348.42 K, 49930 kPa | 1369.4
348.42 K, 54750 kPa | 1389.6
348.43 K, 29340 kPa | 1275
348.43 K, 33900 kPa | 1297.2
348.43 K, 39830 kPa | 1324.8
348.45 K, 24930 kPa | 1252.9
355.89 K, 12280 kPa | 1158.2
355.92 K, 15640 kPa | 1177.7
355.94 K, 920 kPa | 1085.7
355.94 K, 20950 kPa | 1207.3
355.95 K, 490 kPa | 1082.6
355.95 K, 2620 kPa | 1097
355.95 K, 25050 kPa | 1229.2
355.95 K, 31130 kPa | 1260.2
355.96 K, 10930 kPa | 1149.9
355.98 K, 270 kPa | 1081
355.98 K, 5370 kPa | 1115.1
355.98 K, 65160 kPa | 1410.3
356 K, 59390 kPa | 1387.1
356.02 K, 41360 kPa | 1308.9
356.02 K, 45060 kPa | 1325.7
356.04 K, 54960 kPa | 1368.5
356.05 K, 34600 kPa | 1276.9
356.08 K, 50520 kPa | 1349.5
373.53 K, 2520 kPa | 1031.7
373.53 K, 5450 kPa | 1052.5
373.54 K, 2530 kPa | 1031.7
373.55 K, 950 kPa | 1020.1
373.57 K, 44340 kPa | 1271.8
373.58 K, 570 kPa | 1017.1
373.58 K, 49640 kPa | 1296.2
373.59 K, 240 kPa | 1014.6
373.6 K, 10260 kPa | 1084.6
373.6 K, 19750 kPa | 1143.4
373.6 K, 29800 kPa | 1199.1
373.6 K, 29850 kPa | 1199.3
373.6 K, 35000 kPa | 1226.1
373.61 K, 14920 kPa | 1114.2
373.61 K, 59070 kPa | 1337.5
373.62 K, 20290 kPa | 1146.4
373.62 K, 39790 kPa | 1249.8
373.62 K, 40800 kPa | 1254.9
373.62 K, 58970 kPa | 1337.1
373.63 K, 24920 kPa | 1172.7
373.63 K, 54980 kPa | 1319.8
373.64 K, 64880 kPa | 1361.7
398.19 K, 37260 kPa | 1168.3
398.2 K, 220 kPa | 923.76
398.2 K, 29920 kPa | 1127.9
398.2 K, 37270 kPa | 1168.3
398.2 K, 40070 kPa | 1182.9
398.2 K, 54810 kPa | 1254.7
398.2 K, 60130 kPa | 1278.8
398.21 K, 500 kPa | 926.17
398.21 K, 34890 kPa | 1155.4
398.21 K, 44950 kPa | 1207.5
398.21 K, 64730 kPa | 1299
398.22 K, 1040 kPa | 930.76
398.22 K, 20010 kPa | 1068.5
398.22 K, 24890 kPa | 1098.6
398.23 K, 50040 kPa | 1232.3
398.24 K, 5190 kPa | 964.55
398.24 K, 15110 kPa | 1036.5
398.24 K, 31220 kPa | 1135.2
398.25 K, 2490 kPa | 942.77
398.25 K, 10300 kPa | 1002.9
398.25 K, 19720 kPa | 1066.6
398.25 K, 31220 kPa | 1135.2
398.26 K, 12650 kPa | 1019.5
422.57 K, 5690 kPa | 886.27
422.65 K, 2630 kPa | 858.44
422.7 K, 14830 kPa | 959.38
422.72 K, 550 kPa | 838.3
422.72 K, 50170 kPa | 1171.8
422.73 K, 190 kPa | 834.7
422.73 K, 28590 kPa | 1052.1
422.73 K, 54780 kPa | 1194.6
422.74 K, 1230 kPa | 844.88
422.74 K, 9190 kPa | 915.48
422.74 K, 44830 kPa | 1144.4
422.75 K, 780 kPa | 840.37
422.75 K, 10020 kPa | 922.14
422.75 K, 19940 kPa | 995.75
422.75 K, 24810 kPa | 1028.2
422.75 K, 29890 kPa | 1060
422.75 K, 64580 kPa | 1240.2
422.76 K, 59900 kPa | 1218.7
422.77 K, 34850 kPa | 1089.3
422.77 K, 40720 kPa | 1122.3
446.94 K, 5130 kPa | 800.91
446.99 K, 10180 kPa | 848.37
446.99 K, 14830 kPa | 887.97
447 K, 19890 kPa | 927.32
447.01 K, 7300 kPa | 821.88
447.02 K, 1020 kPa | 756.94
447.02 K, 24900 kPa | 963.22
447.03 K, 22500 kPa | 946.32
447.07 K, 300 kPa | 748.43
447.07 K, 580 kPa | 751.73
447.08 K, 49880 kPa | 1113.3
447.08 K, 64750 kPa | 1187.3
447.09 K, 30510 kPa | 1000.7
447.11 K, 54450 kPa | 1137
447.12 K, 40150 kPa | 1059.5
447.13 K, 35270 kPa | 1030.4
447.13 K, 45010 kPa | 1086.9
447.13 K, 59760 kPa | 1163.3
